Measurements from the supplement of paper PMC10307832.

How the values were obtained:
Assay in all cases: relative viability (nuclei count vs DMSO), 5 days (fraction); higher = more cells survive
Bortezomib + Navitoclax = compound: CC(C)C[C@H](NC(=O)[C@H](Cc1ccccc1)NC(=O)c1cnccn1)B(O)O [Bortezomib] + CC1(C)CCC(c2ccc(Cl)cc2)=C(CN2CCN(c3ccc(C(=O)NS(=O)(=O)c4ccc(N[C@H](CCN5CCOCC5)CSc5ccccc5)c(S(=O)(=O)C(F)(F)F)c4)cc3)CC2)C1 [Navitoclax] (partner 0.5 µM)
Outline: (§1)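 A single step with final 0.05% Triton X-100, 1% formaldehyde and 1 ug/ml Hoechst fixed the cells and stained nuclei 5 days after treatment. Lung cancer cell lines in 1536-well plates had been treated by pin tool the day after seeding with one drug alone or a fixed anchor-drug dose plus five library-drug doses (not always all listed) in √10 steps, and nuclei were counted on 4× images. Relative viability is the ratio of nuclei in treated wells to nuclei in vehicle wells, taken as the median of duplicate plates.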

[1] = compound: CC1=CC(=NN1)NC2=CC(=NC(=N2)/C=C/C3=CC=CC=C3)N4CCN(CC4)C + Cc1cc(Nc2cc(N3CCN(C)CC3)nc(Sc3ccc(NC(=O)C4CC4)cc3)n2)n[nH]1 [Tozasertib] (partner 0.1 µM)
Outline: as §1

Obatoclax + Luminespib = compound: COC1=CC(c2cc3ccccc3[nH]2)=N/C1=C\c1[nH]c(C)cc1C [Obatoclax] + CCNC(=O)c1noc(-c2cc(C(C)C)c(O)cc2O)c1-c1ccc(CN2CCOCC2)cc1 [Luminespib] (partner 0.01 µM)
Outline: as §1

Bortezomib + Pemetrexed = compound: CC(C)C[C@H](NC(=O)[C@H](Cc1ccccc1)NC(=O)c1cnccn1)B(O)O [Bortezomib] + Nc1nc2[nH]cc(CCc3ccc(C(=O)N[C@@H](CCC(=O)O)C(=O)O)cc3)c2c(=O)[nH]1 [Pemetrexed] (partner 0.2 µM)
Outline: as §1

Cell Line | relative viability (Bortezomib + Navitoclax; first compound 0.0002 µM) | relative viability (Bortezomib + Navitoclax; first compound 0.000632 µM) | relative viability (Bortezomib + Navitoclax; first compound 0.002 µM) | relative viability (Bortezomib + Navitoclax; first compound 0.006325 µM) | relative viability (Bortezomib + Navitoclax; first compound 0.02 µM) | relative viability ([1]; first compound 0.08 µM) | relative viability ([1]; first compound 0.253 µM) | relative viability ([1]; first compound 0.8 µM) | relative viability ([1]; first compound 2.53 µM) | relative viability ([1]; first compound 8 µM) | relative viability (Obatoclax + Luminespib; first compound 0.01 µM) | relative viability (Obatoclax + Luminespib; first compound 0.03162 µM) | relative viability (Obatoclax + Luminespib; first compound 0.1 µM) | relative viability (Obatoclax + Luminespib; first compound 0.3162 µM) | relative viability (Obatoclax + Luminespib; first compound 1 µM) | relative viability (Bortezomib + Pemetrexed; first compound 0.0002 µM) | relative viability (Bortezomib + Pemetrexed; first compound 0.000632 µM) | relative viability (Bortezomib + Pemetrexed; first compound 0.002 µM) | relative viability (Bortezomib + Pemetrexed; first compound 0.006325 µM) | relative viability (Bortezomib + Pemetrexed; first compound 0.02 µM)
NCI-H1734 | 0.86 | 0.872 | 0.662 | 0.112 | 0.0892 | 0.256 | 0.238 | 0.239 | 0.227 | 0.157 | 0.201 | 0.188 | 0.2 | 0.187 | 0.18 | 0.419 | 0.407 | 0.451 | 0.178 | 0.114
NCI-H1755 | 0.975 | 0.979 | 0.917 | 0.269 | 0.165 | 0.539 | 0.563 | 0.524 | 0.333 | 0.211 | 0.416 | 0.418 | 0.388 | 0.714 | 0.713 | 0.404 | 0.495 | 0.472 | 0.286 | 0.239
NCI-H1793 | 0.418 | 0.463 | 0.599 | 0.409 | 0.149 | 0.298 | 0.537 | 0.207 | 0.123 | 0.111 | 0.119 | 0.128 | 0.187 | 0.183 | 0.192 | 0.762 | – | 0.867 | 0.616 | 0.211
NCI-H1915 | 0.676 | 0.764 | 0.799 | 0.0915 | 0.0811 | 0.462 | 0.34 | 0.334 | 0.16 | 0.135 | 0.725 | 0.664 | 0.749 | 0.713 | 0.796 | 0.496 | 0.475 | 0.494 | 0.396 | 0.0489
NCI-H1944 | 1.06 | 0.992 | 1.12 | 1.05 | 0.887 | 0.266 | 0.284 | 0.223 | 0.184 | 0.136 | 0.794 | 0.66 | 0.735 | 0.75 | 0.636 | 0.564 | 0.546 | 0.636 | 0.47 | 0.151
NCI-H1975 | 1.05 | 1.05 | 0.315 | 0.136 | 0.133 | 0.62 | 0.729 | 0.416 | 0.127 | 0.0865 | 0.316 | 0.196 | – | 0.472 | 0.306 | 0.274 | 0.253 | 0.158 | 0.136 | 0.122
NCI-H1993 | 0.94 | 0.982 | 1.01 | 0.52 | 0.48 | 0.553 | 0.524 | 0.577 | 0.485 | 0.52 | 0.868 | 0.869 | 0.845 | 0.615 | 0.863 | 0.701 | 0.585 | 0.627 | 0.395 | 0.391
NCI-H2009 | 1.16 | 1.1 | 1.15 | 0.0798 | 0.0607 | 0.656 | 0.73 | 0.663 | 0.368 | 0.217 | 0.928 | 0.981 | 0.993 | 0.713 | 0.246 | 1.05 | 1.05 | 1.02 | 0.553 | 0.0697
NCI-H2023 | 0.967 | 0.994 | 0.936 | 0.17 | 0.0898 | 0.266 | 0.305 | 0.235 | 0.0983 | 0.0659 | 0.57 | 0.799 | 0.556 | 0.257 | 0.107 | 0.25 | 0.247 | 0.246 | 0.0916 | 0.0786
NCI-H2085 | 1.18 | 1.14 | 1.05 | 0.248 | 0.211 | 0.823 | 0.749 | 0.629 | 0.424 | 0.433 | 0.389 | 0.432 | 0.44 | 0.283 | 0.347 | 0.827 | 0.873 | 0.991 | 0.403 | 0.206
NCI-H2087 | 0.991 | 1.02 | 0.509 | 0.0888 | 0.0686 | 0.229 | 0.238 | 0.195 | 0.162 | 0.11 | 0.164 | 0.166 | 0.161 | 0.121 | 0.121 | 0.626 | 0.761 | 0.63 | 0.0855 | 0.0402
NCI-H2126 | 0.857 | 0.844 | 0.827 | 0.848 | 0.327 | 0.844 | 0.907 | 0.837 | 0.501 | 0.236 | 0.857 | 0.876 | 0.875 | 0.806 | 0.679 | 0.648 | 0.695 | 0.707 | 0.61 | 0.536
NCI-H2170 | 0.425 | 0.548 | 0.6 | 0.169 | 0.172 | 0.72 | 0.656 | 0.699 | 0.38 | 0.164 | 0.624 | 0.592 | 0.761 | 0.588 | 0.652 | 0.271 | 0.256 | 0.286 | 0.263 | 0.136
NCI-H2228 | 1 | 1.05 | 0.368 | 0.0925 | 0.0601 | 0.193 | 0.214 | 0.158 | 0.086 | 0.0648 | 0.164 | 0.109 | 0.138 | 0.113 | 0.186 | 0.369 | 0.356 | 0.275 | 0.112 | 0.0808
NCI-H2347 | 0.513 | 0.847 | 0.651 | 0.197 | 0.193 | 0.501 | 0.565 | 0.518 | 0.461 | 0.257 | 0.595 | 0.374 | – | 0.269 | 0.23 | 0.418 | 0.43 | 0.413 | 0.417 | 0.357
